The assay deals with Serine/threonine-protein phosphatase 5 (Homo sapiens) (UniProt P53041). Briefly: PP5 catalytic domain inhibition, concentration series – biochemical, fluorescence, OMFP substrate, powder samples, set 2, selectivity assay for PP1 inhibitor project, dose response (AID 652230). Particulars: purified PP5c, OMFP dephosphorylation.

Active and inactive are the calls of the source.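 How the source made its calls: active means IC50 below 10 µM for blocking the phosphatase PP5; inactive means IC50 at or above 10 µM.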

Sequence of Serine/threonine-protein phosphatase 5 (Homo sapiens) (P53041 whole entry, looked up, the tested form may be a part): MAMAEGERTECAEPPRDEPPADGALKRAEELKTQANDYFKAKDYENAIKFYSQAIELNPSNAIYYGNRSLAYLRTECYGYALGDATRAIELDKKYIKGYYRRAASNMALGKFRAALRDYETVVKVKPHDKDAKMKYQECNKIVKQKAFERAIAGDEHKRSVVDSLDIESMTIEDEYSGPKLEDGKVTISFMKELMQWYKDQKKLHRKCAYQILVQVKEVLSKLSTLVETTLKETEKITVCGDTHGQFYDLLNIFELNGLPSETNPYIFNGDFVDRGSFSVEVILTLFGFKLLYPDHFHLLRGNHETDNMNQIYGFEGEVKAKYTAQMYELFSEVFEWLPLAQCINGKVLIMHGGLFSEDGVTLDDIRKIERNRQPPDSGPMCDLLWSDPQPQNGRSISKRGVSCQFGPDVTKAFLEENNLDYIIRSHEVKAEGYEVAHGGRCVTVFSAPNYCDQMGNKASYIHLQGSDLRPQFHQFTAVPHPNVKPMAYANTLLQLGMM

Take `CN1CCN([C@H](c2ncccn2)c2ccc3cccnc3c2O)CC1`: the IC50 entry was “inactive”.

Regarding `CN1CCN([C@@H](c2ncccn2)c2ccc3cccnc3c2O)CC1`, the IC50 entry is “inactive”.

The record behind these values is PubChem BioAssay AID652230 (The Scripps Research Institute Molecular Screening Center, 2013).
